What was measured:
[1] = tested on: accessory gene regulator (agr) system, agr P2-P3 GFP reporter pJY202; test: Agr Reporter (Staph Aureus) Assay; type: cell-based, Staphylococcus aureus MN8; conditions: S. aureus MN8 (pJY202), 1X TY media, RFU normalized to OD600, 24 hours, n=3
Description: Description: The expression of many virulence factors in Staphylococcus aureus is controlled by the quorum sensing accessory gene regulator (agr) system. The plasmid pJY202 is an agr reporter that contains a fusion of the agr P2-P3 region with a gene coding for GFP.
(§1) An S. aureus MN8 (pJY202) colony was picked from a TSA plate and grown overnight in TSB media with 5 µg/mL erythromycin with shaking at 37° C. The culture was centrifuged at 3000×g for 5 minutes and the supernatant was removed. The bacteria were washed once with water.
(§2) Individual growth media solutions for the assay were freshly prepared by adding materials to 1X TY media with 5 μg/mL erythromycin and then adjusting the pH of each solution to about pH 6.0 (using 1M NaOH or 1M HCl). All the growth media solutions were sterile filtered when possible using a 0.2 micrometer filter.
(§3) An aliquot of each growth media solution (200 microliters) was added to the well of a 96-well black, clear-bottom plate. Samples were prepared in triplicate (n=3). The bacteria samples were resuspended in 5 mL of 1X TY media. […] Bacterial growth was measured at 600 nm (OD600) and Agr activity was measured as fluorescent intensity at 485 nm excitation/528 nm emission. Agr activity (relative fluorescence units, RFU) was normalized to bacterial growth (OD600) for each well. The Agr activity was measured at the 24 hour time point.

[2] = tested on: S. aureus MN8 (pJY202); test: Bacterial growth (OD600) in the Agr reporter assay; type: cell-based, Staphylococcus aureus MN8; conditions: 1X TY media, pH about 6.0, 24 hours
Description: as §1, §2
as §3, with “media. A 3 microliter sample of resuspended S. aureus MN8 (pJY202) was added to each well.” for “media.”

## O=P([O-])(O)O.[K+] [50 mM KH2PO4, KH2PO4]
[1]
  Agr Expression at 24 hours: 86 +/− 6
[2]
  Growth OD600 at 24 hours: 1.02

Source: US20250041334A1, “Compositions for Virulence Suppression” (Solventum Intellectual Properties Company, priority 2021, published 2025)
